# According to ChEMBL document CHEMBL5209576, “Membrane potential based assay for SLC5A7 using HEK-293 SLC5A7 OE cells” (2022):
# Molecular target: T1, High affinity choline transporter 1 (Homo sapiens, UniProt Q9GZV3)
# T1 sequence (Q9GZV3 whole entry): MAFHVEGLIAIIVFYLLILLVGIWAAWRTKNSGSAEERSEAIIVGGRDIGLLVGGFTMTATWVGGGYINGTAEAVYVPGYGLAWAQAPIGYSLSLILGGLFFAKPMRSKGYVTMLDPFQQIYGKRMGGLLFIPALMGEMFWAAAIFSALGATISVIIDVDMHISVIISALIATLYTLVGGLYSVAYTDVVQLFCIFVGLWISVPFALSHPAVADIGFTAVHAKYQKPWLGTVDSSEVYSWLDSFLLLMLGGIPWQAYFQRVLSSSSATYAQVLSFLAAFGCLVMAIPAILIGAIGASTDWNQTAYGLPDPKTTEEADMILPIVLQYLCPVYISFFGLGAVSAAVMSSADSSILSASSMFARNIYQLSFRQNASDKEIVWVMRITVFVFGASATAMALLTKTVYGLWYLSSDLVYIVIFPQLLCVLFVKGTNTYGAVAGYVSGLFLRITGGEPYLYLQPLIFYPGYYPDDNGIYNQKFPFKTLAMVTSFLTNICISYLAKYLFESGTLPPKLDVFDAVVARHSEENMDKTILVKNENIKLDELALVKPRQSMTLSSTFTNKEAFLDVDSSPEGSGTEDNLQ
# Assay: Substrate uptake and inhibition of the High Affinity Choline Transporter 1 (CHT1, SLC5A7) as assessed by the fluorescent FLIPR membrane potential dye in HEK-293 JumpIN-SLC5A7 cells (PubChem AID: 1794811)
# Format: functional, cell-based, HEK293
SMILES,IC50 (hek293),EC50
C[N+]1(C)CCOC(O)(c2ccc(-c3ccc(C4(O)C[N+](C)(C)CCO4)cc3)cc2)C1.[Br-].[Br-] (configuration not stated),Inhibitor: Almost Complete Inhibition At A Concentration Of 10 Μm,
C[N+](C)(C)CCO.[Cl-] [CHOLINE CHLORIDE],,17 µM
